From PubChem BioAssay (NCI)
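These data come from cells grown in 96-well plates and exposed to compound for 48 hours at five concentrations. Abbreviation: GI50, concentration required for 50% inhibition of growth. TGI is the concentration that stops growth completely.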

Experiments:
Test in all cases: DTP human tumour cell line panel, 48 h; in the data active = GI50 below about 0.43 µM; inactive = the rest
[1] = system: COLO 205 colon
[2] = system: TK-10 renal
[3] = system: NCI-H23 lung
[4] = system: HCC-2998 colon
[5] = system: EKVX NSCLC
[6] = system: NCI-H226 lung
[7] = system: UACC-257 melanoma
[8] = system: SK-MEL-28 melanoma
[9] = system: SF-295 CNS
[10] = system: HT29 colon
[11] = system: SNB-19 CNS
[12] = system: 786-0 renal
[13] = system: IGROV1 ovarian
[14] = system: HOP-62 NSCLC
[15] = system: NCI-H522 lung
[16] = system: SNB-75 CNS
[17] = system: MALME-3M melanoma
[18] = system: OVCAR-3 ovarian
[19] = system: SW-620 colon
[20] = system: ACHN renal
[21] = system: RXF 393 renal
[22] = system: SF-268 CNS
[23] = system: A549 NSCLC
[24] = system: M14 melanoma
[25] = system: SN12C renal
[26] = system: HS 578T breast
[27] = system: DU-145 prostate
[28] = system: MCF7 breast
[29] = system: SR leukemia
[30] = system: LOX IMVI melanoma
[31] = system: OVCAR-8 ovarian
[32] = system: MOLT-4 leukemia
[33] = system: T-47D breast
[34] = system: HOP-92 NSCLC
[35] = system: OVCAR-4 ovarian
[36] = system: SK-MEL-5 melanoma
[37] = system: SK-OV-3 ovarian
[38] = system: HCT-15 colon
[39] = system: MDA-MB-231 breast
[40] = system: A498 renal
[41] = system: OVCAR-5 ovarian
[42] = system: RPMI-8226 leukemia
[43] = system: PC-3 prostate
[44] = system: U251 CNS
[45] = system: SF-539 CNS
[46] = system: HCT-116 colon
[47] = system: SK-MEL-2 melanoma
[48] = system: NCI/ADR-RES ovarian
[49] = system: NCI-H460 lung
[50] = system: MDA-MB-435
[51] = system: KM12 colon
[52] = system: UO-31 renal
[53] = system: UACC-62 melanoma
[54] = system: CAKI-1 renal
[55] = system: BT-549 breast
[56] = system: K-562 leukemia
[57] = system: CCRF-CEM leukemia
[58] = system: HL-60(TB) leukemia

O=[N+]([O-])c1cc(O)c(O)cc1-c1cn2ccsc2n1
64 µM: TGI [18]
> 100 µM: TGI [1] | TGI [2] | TGI [3] | TGI [4] | TGI [5] | TGI [6] | TGI [7] | TGI [8] | TGI [10] | TGI [11] | TGI [12] | TGI [13] | TGI [14] | TGI [15] | TGI [16] | TGI [17] | TGI [19] | TGI [20] | TGI [21] | TGI [22] | TGI [23] | TGI [25] | TGI [27] | TGI [28] | TGI [29] | TGI [30] | TGI [31] | TGI [32] | TGI [33] | TGI [34] | TGI [35] | TGI [37] | TGI [38] | TGI [39] | TGI [41] | TGI [42] | TGI [43] | TGI [44] | TGI [45] | TGI [46] | TGI [47] | TGI [48] | TGI [49] | TGI [50] | TGI [51] | TGI [52] | TGI [53] | TGI [54]
inactive: GI50 [1] 75.2 µM | GI50 [2] 66.5 µM | GI50 [3] 67.5 µM | GI50 [4] 43.7 µM | GI50 [5] > 100 µM | GI50 [6] 76.7 µM | GI50 [7] > 100 µM | GI50 [8] 55.5 µM | GI50 [9] 31.2 µM | GI50 [10] 28.7 µM | GI50 [11] 91.1 µM | GI50 [12] 31 µM | GI50 [13] 32.4 µM | GI50 [14] 36.1 µM | GI50 [15] 33 µM | GI50 [16] > 100 µM | GI50 [17] > 100 µM | GI50 [18] 23.6 µM | GI50 [19] 45.6 µM | GI50 [20] 42.6 µM | GI50 [21] > 100 µM | GI50 [22] 66.1 µM | GI50 [23] 41.3 µM | GI50 [24] 20 µM | GI50 [25] 85.6 µM | GI50 [27] 17.2 µM | GI50 [28] 52.7 µM | GI50 [29] 41.3 µM | GI50 [30] 52 µM | GI50 [31] 52.5 µM | GI50 [32] 75.9 µM | GI50 [33] > 100 µM | GI50 [34] 97.2 µM | GI50 [35] 69.7 µM | GI50 [36] 16.3 µM | GI50 [37] > 100 µM | GI50 [38] 38.5 µM | GI50 [39] 59.2 µM | GI50 [40] 25.3 µM | GI50 [41] > 100 µM | GI50 [42] 54.6 µM | GI50 [43] 63.4 µM | GI50 [44] 77.1 µM | GI50 [45] 71.1 µM | GI50 [46] 31.1 µM | GI50 [47] 57.1 µM | GI50 [48] 50.6 µM | GI50 [49] 46.9 µM | GI50 [50] 47.3 µM | GI50 [51] 40.4 µM | GI50 [52] 34.1 µM | GI50 [53] 54.2 µM | GI50 [54] 38.4 µM
54.8 µM: TGI [36]
36 µM: TGI [26]
62.3 µM: TGI [40]
91.3 µM: TGI [9]
57.7 µM: TGI [24]

OCCCCC#Cc1ccccc1C#Cc1ccccc1F
33.3 µM: TGI [41]
33.1 µM: TGI [13]
32.6 µM: TGI [15] | TGI [53]
39.2 µM: TGI [7]
inactive: GI50 [1] 16.4 µM | GI50 [2] 20.8 µM | GI50 [3] 20.2 µM | GI50 [4] 17.8 µM | GI50 [5] 29.4 µM | GI50 [6] 24 µM | GI50 [7] 18.9 µM | GI50 [8] 27.3 µM | GI50 [9] 21.6 µM | GI50 [10] 52 µM | GI50 [11] 17.5 µM | GI50 [12] 14.3 µM | GI50 [13] 15 µM | GI50 [55] 21.7 µM | GI50 [14] 12 µM | GI50 [15] 16.3 µM | GI50 [16] > 100 µM | GI50 [56] 23.2 µM | GI50 [17] 26.1 µM | GI50 [18] 19.7 µM | GI50 [19] 22.2 µM | GI50 [20] 25.5 µM | GI50 [21] 7.63 µM | GI50 [22] 25.3 µM | GI50 [23] 15.7 µM | GI50 [24] 14.6 µM | GI50 [25] 18.1 µM | GI50 [26] 27.5 µM | GI50 [27] 35.7 µM | GI50 [28] 42.1 µM | GI50 [57] 24.6 µM | GI50 [30] 17.4 µM | GI50 [31] 20.8 µM | GI50 [32] 21.2 µM | GI50 [33] 16.1 µM | GI50 [34] 22 µM | GI50 [35] > 100 µM | GI50 [36] 23.6 µM | GI50 [37] 23.8 µM | GI50 [38] 18 µM | GI50 [39] 17 µM | GI50 [40] 26.9 µM | GI50 [41] 16.2 µM | GI50 [42] 30.7 µM | GI50 [43] 20 µM | GI50 [44] 16 µM | GI50 [45] 22 µM | GI50 [46] 16.2 µM | GI50 [58] 22.2 µM | GI50 [47] 23.9 µM | GI50 [48] 21.1 µM | GI50 [49] 25.9 µM | GI50 [50] 18.9 µM | GI50 [51] 18.8 µM | GI50 [52] 20.7 µM | GI50 [53] 16.5 µM | GI50 [54] 24.2 µM
42.7 µM: TGI [9]
48.2 µM: TGI [43]
31.6 µM: TGI [30]
49.8 µM: TGI [6] | TGI [32]
29.6 µM: TGI [24]
40.4 µM: TGI [25]
72.9 µM: TGI [8]
36.6 µM: TGI [39]
33 µM: TGI [4]
51.4 µM: TGI [54]
52.5 µM: TGI [47]
44.4 µM: TGI [19]
82.5 µM: TGI [40]
> 100 µM: TGI [10] | TGI [16] | TGI [27] | TGI [28] | TGI [35]
26.1 µM: TGI [14]
44.9 µM: TGI [58]
94.4 µM: TGI [5]
53.6 µM: TGI [20]
71.9 µM: TGI [26]
58.4 µM: TGI [37]
32.5 µM: TGI [38]
25.6 µM: TGI [21]
29.8 µM: TGI [12]
36.8 µM: TGI [11]
42.6 µM: TGI [33]
48.7 µM: TGI [57]
46.9 µM: TGI [17]
34.5 µM: TGI [23]
46.5 µM: TGI [52]
29.9 µM: TGI [46]
48.4 µM: TGI [45]
43.1 µM: TGI [3]
47.2 µM: TGI [56]
52.7 µM: TGI [55]
37.2 µM: TGI [50]
64.2 µM: TGI [34]
46.7 µM: TGI [48]
62.4 µM: TGI [22]
33.6 µM: TGI [44]
43.6 µM: TGI [18]
37.7 µM: TGI [51]
49.7 µM: TGI [2]
70 µM: TGI [42]
31.3 µM: TGI [1]
47.9 µM: TGI [31]
52.3 µM: TGI [36]
60.5 µM: TGI [49]
